Legend:
[1] = biological target: T1, recombinant human NK3 receptor (Homo sapiens, UniProt P29371); experiment: [3H]SR142801 competition binding assay; conditions: hNK3 receptor, membranes from HEK293 cells transiently expressing the receptor, [3H]SR142801 radioligand
T1 construct: expressed in transfected cells; host or cells: HEK293 cells (transient expression), membranes
T1 sequence (P29371 1-465): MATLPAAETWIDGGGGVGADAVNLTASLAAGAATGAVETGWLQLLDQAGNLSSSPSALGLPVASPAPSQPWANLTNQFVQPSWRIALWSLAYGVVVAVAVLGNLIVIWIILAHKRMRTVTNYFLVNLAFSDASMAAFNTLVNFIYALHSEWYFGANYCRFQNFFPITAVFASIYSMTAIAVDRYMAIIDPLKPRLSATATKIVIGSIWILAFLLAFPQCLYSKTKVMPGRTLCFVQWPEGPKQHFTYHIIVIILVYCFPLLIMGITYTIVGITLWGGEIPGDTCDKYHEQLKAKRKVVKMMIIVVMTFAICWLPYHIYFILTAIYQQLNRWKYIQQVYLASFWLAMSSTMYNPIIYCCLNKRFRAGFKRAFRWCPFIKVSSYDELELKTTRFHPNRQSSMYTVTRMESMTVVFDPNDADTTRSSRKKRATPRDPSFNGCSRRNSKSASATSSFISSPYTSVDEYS
Description: [^3H]SR142801 Competition Binding Assay
hNK3 receptor binding experiment were performed using [^3H]SR142801 (Catalog No. TRK1035, specific activity: 74.0 Ci/mmol, Amersham, GE Healthcare UK limited, Buckinghamshire, UK) and membrane isolated from HEK293 cells transiently expressing recombinant human NK3 receptor. After thawing, the membrane homogenates were centrifuged at 48,000×g for 10 min at 4° C., the pellets were resuspended in the 50 mM Tris-HCl, 4 mM MnCl2, 1 μM phosphoramidon, 0.1% BSA binding buffer at pH 7.4 to a final assay concentration of 5 μg protein/well. For inhibition experiments, membranes were incubated with [^3H]SR142801 at a concentration equal to KD value of radioligand and 10 concentrations of the inhibitory compound (0.0003-10 μM) (in a total reaction volume of 500 μl) for 75 min at room temperature (RT). At the end of the incubation, membranes were filtered onto unitfilter (96-well white microplate with bonded GF/C filter preincubated 1 h in 0.3% PEI+0.3% BSA, Packard BioScience, Meriden, Conn.) with a Filtermate 196 harvester (Packard BioScience) and washed 4 times with ice-cold 50 mM Tris-HCl, pH 7.4 buffer. Nonspecific binding was measured in the presence of 10 μM SB222200 for both radioligands. The radioactivity on the filter was counted (5 min) on a Packard Top-count microplate scintillation counter with quenching correction after addition of 45 μl of microscint 40 (Can berra Packard S. A., Zürich, Switzerland) and shaking for 1 h. Inhibition curves were fitted according to the Hill equation: […]), where nH=slope factor using Excel-fit 4 software (Microsoft). IC50 values were derived from the inhibition curve and the affinity constant (Ki) values were calculated using the Cheng-Prussoff equation Ki=IC50/(1+[L]/KD) where [L] is the concentration of radioligand and KD is its dissociation constant at the receptor, derived from the saturation isotherm. All experiments were performed in duplicate and the mean±standard error (SEM) of the individual Ki values was calculated.

[2] = tested on: schizophrenia; conditions: phase II trial, cited from earlier work

SMILES | Ki [1] | activity on positive symptoms of schizophrenia ([2]; altered behaviour, delusion, hallucinations, extreme emotions, excited motor activity, incoherent speech) | activity in the treatment of negative symptoms ([2]; depression, anhedonia, social isolation or memory and attention deficits)
C[C@H](Oc1ccc(Cl)cn1)[C@H]1CN(C(=O)C2CCN(c3ccc(C#N)cn3)CC2)C[C@@H]1c1ccc(F)c(F)c1 [Example 20, 4-[(3R,4S)-3-[1-((S)-5-Chloro-pyridin-2-yloxy)-ethyl]-4-(3,4-difluoro-phenyl)-pyrrolidine-1-carbonyl]-3,4,5,6-tetrahydro-2H-[1,2′]bipyridinyl-5′-carbonitrile] | 0.9 nM | – | –
Cc1ccc(N2CCC(C(=O)N3C[C@H]([C@H](C)Oc4ccc(C#N)cn4)[C@@H](c4ccc(F)c(F)c4)C3)CC2)nn1 [Example 21, 6-((S)-1-{(3R,4S)-4-(3,4-Difluoro-phenyl)-1-[1-(6-methyl-pyridazin-3-yl)-piperidine-4-carbonyl]-pyrrolidin-3-yl}-ethoxy)-nicotinonitrile] | 2.8 nM | – | –
CC(=O)N(C)C1(c2ccccc2)CCN(CCC[C@]2(c3ccc(Cl)c(Cl)c3)CCCN(C(=O)c3ccccc3)C2)CC1 [SR 142,801, Osanetant] | – | active | inactive

Reference: patent publication US8394834B2, “Pyrrolidines as NK3 receptor antagonists” (Hoffman-La Roche Inc., priority 2009, dated 2013)
